In patent US11345666B2, “Phenyl and pyridinyl substituted imidazoles as modulators of RORγT” (Janssen Pharmaceutica NV, priority 2018, dated 2022):

Tests used:
[1] = target: full-length human RORγt (Homo sapiens (Human), UniProt P51449); test: RORγt (full-length human) reporter assay, conditions A or B; assay type: cell-based; conditions: for inhibition at 0.67 µM: 0.67 μM compound concentration (****); for IC50: HEK293T cells, read-out: RORγt (FL) Reporter Assay A or B, IC50; for inhibition at 2 µM: 2 μM compound concentration (**); for inhibition at 6 µM: read-out: RORγt (FL) Reporter Assay A or B, % inhibition @ 6 μM, 6 μM compound concentration; for inhibition at 0.22 µM: 0.22 μM compound concentration (******)
Chain of full-length human RORγt (P51449 other isoform, or with tags, fused parts or gaps): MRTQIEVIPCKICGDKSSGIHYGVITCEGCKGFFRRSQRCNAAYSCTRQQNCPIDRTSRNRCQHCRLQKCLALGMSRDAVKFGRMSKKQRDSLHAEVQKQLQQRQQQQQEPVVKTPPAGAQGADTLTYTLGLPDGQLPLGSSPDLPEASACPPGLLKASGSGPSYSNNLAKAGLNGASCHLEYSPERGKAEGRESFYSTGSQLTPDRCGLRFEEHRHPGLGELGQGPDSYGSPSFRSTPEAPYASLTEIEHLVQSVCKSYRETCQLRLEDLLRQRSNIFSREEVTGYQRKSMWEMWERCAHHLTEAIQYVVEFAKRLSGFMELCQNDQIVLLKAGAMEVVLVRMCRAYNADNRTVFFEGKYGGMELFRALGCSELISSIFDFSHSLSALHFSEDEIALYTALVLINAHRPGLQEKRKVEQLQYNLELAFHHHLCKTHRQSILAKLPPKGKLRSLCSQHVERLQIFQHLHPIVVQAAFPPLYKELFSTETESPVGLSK
Summary of the method: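 HEK293T cells transiently co-transfected (PEI) with GAL4-DBD–RORγt, GAL4-firefly luciferase and CMV-Renilla reporters; condition A 35,000 cells/well, 170.5 ng DNA/well; condition B 8750 cells/well, 42.6 ng DNA/well.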

[2] = target: human RORγt ligand binding domain (RORγt LBD) (Homo sapiens (Human), UniProt P51449); test: RORγt ThermoFluor assay
Chain of human RORγt ligand binding domain (RORγt LBD) (P51449 other isoform, or with tags, fused parts or gaps): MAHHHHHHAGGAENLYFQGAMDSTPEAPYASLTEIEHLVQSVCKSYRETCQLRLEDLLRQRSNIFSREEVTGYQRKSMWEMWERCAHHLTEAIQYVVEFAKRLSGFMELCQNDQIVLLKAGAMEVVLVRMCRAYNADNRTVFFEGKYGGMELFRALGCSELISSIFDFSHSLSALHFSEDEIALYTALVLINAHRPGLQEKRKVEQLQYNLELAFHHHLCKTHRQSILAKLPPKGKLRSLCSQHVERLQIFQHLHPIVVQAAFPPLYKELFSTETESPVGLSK
Summary of the method: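 Thermal shift of His-tagged human RORγt LBD (0.065 mg/mL) with 60 μM 1,8-ANS in 100 mM Hepes pH 7.0, 10 mM NaCl, 2.5 mM GSH, 0.002% Tween-20, heated at 1° C./min. Compounds in 1:2 series from a 10 mM DMSO stock; KD estimated from ΔTm using protein unfolding thermodynamics.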

[3] = read-out: RORγt (FL) Reporter Assay A or B, % inhibition

Row | inhibition at 0.67 µM [1, 3] | IC50 [1] | Kd [2] | inhibition at 2 µM [1, 3] | inhibition at 6 µM [1] | inhibition at 0.22 µM [1, 3] | inhibition at 0.07 µM ([1]; 0.07 μM compound concentration (*******), read-out: RORγt (FL) Reporter Assay A or B, % inhibition) | SMILES
1 |  | 330 nM | 93 nM | 65% |  |  |  | CCc1nc(C(=O)NC[C@H]2CC[C@H](S(C)(=O)=O)CC2)c(C#N)n1-c1ccc(CCC(F)(F)F)cc1F [Example 93, 5-Cyano-2-ethyl-1-(2-fluoro-4-(3,3,3-trifluoropropyl)phenyl)-N-(((1r,4r)-4-(methylsulfonyl)cyclohexyl)methyl)-1H-imidazole-4-carboxamide]
2 |  | 490 nM | 250 nM | 47% |  |  |  | CCc1nc(C(=O)NC[C@H]2CC[C@H](S(C)(=O)=O)CC2)c(C(N)=O)n1-c1ccc(CCC(F)(F)F)cc1F [Example 94, 2-Ethyl-1-(2-fluoro-4-(3,3,3-trifluoropropyl)phenyl)-N^4-(((1r,4r)-4-(methylsulfonyl)cyclohexyl)methyl)-1H-imidazole-4,5-dicarboxamide]
3 |  | 1200 nM | 290 nM |  | 72% |  |  | CCc1nc(C(=O)NC[C@]2(O)CC[C@@H](S(C)(=O)=O)CC2)c(C#N)n1-c1ccc(CCC(F)(F)F)cc1F [Example 95, 5-Cyano-2-ethyl-1-(2-fluoro-4-(3,3,3-trifluoropropyl)phenyl)-N-(((1s,4s)-1-hydroxy-4-(methylsulfonyl)cyclohexyl)methyl)-1H-imidazole-4-carboxamide]
4 |  | 1400 nM | 450 nM |  | 75% |  |  | CCc1nc(C(=O)NC[C@]2(O)CC[C@@H](S(C)(=O)=O)CC2)c(C(N)=O)n1-c1ccc(CCC(F)(F)F)cc1F [Example 96, 2-Ethyl-1-(2-fluoro-4-(3,3,3-trifluoropropyl)phenyl)-N-(((1s,4s)-1-hydroxy-4-(methylsulfonyl)cyclohexyl)methyl)-1H-imidazole-4,5-dicarboxamide]
5 |  | 33 nM | 33 nM | 43% |  |  |  | CCc1nc(C(=O)NC[C@]2(O)CC[C@@H](S(C)(=O)=O)CC2)c(Cl)n1-c1ccc(CCCC(F)(F)F)cc1F [Example 98, 5-Chloro-2-ethyl-1-(2-fluoro-4-(4,4,4-trifluorobutyl)phenyl)-N-(((1s,4s)-1-hydroxy-4-(methylsulfonyl)cyclohexyl)methyl)-1H-imidazole-4-carboxamide]
6 | 74% | 36 nM | 8 nM |  |  |  |  | CCc1nc(C(=O)NC[C@]2(O)CC[C@@H](S(C)(=O)=O)CC2)c(Cl)n1-c1ccc(CC(C)(C)C(F)(F)F)cc1F [Example 102, 5-Chloro-2-ethyl-1-(2-fluoro-4-(3,3,3-trifluoro-2,2-dimethylpropyl)phenyl)-N-(((1s,4s)-1-hydroxy-4-(methylsulfonyl)cyclohexyl)methyl)-1H-imidazole-4-carboxamide]

Second part, the compound before the results:

Row | SMILES | inhibition at 0.67 µM [1, 3] | IC50 [1] | Kd [2] | inhibition at 2 µM [1, 3] | inhibition at 6 µM [1] | inhibition at 0.22 µM [1, 3] | inhibition at 0.07 µM ([1]; 0.07 μM compound concentration (*******), read-out: RORγt (FL) Reporter Assay A or B, % inhibition)
7 | CCc1nc(C(=O)NC[C@H]2CC[C@H](S(C)(=O)=O)CC2)c(Cl)n1-c1ccc(CC(C)C)cc1OC [Example 89, 5-Chloro-2-ethyl-1-(4-isobutyl-2-methoxyphenyl)-N-(((1r,4r)-4-(methylsulfonyl)cyclohexyl)methyl)-1H-imidazole-4-carboxamide] | 66% | 16 nM | 0.2 nM |  |  |  | 
8 | CCc1nc(C(=O)NC[C@]2(O)CC[C@@H](S(C)(=O)=O)CC2)c(Cl)n1-c1ccc(CC(C)C)cc1OC [Example 90, 5-Chloro-2-ethyl-N-(((1s,4s)-1-hydroxy-4-(methylsulfonyl)cyclohexyl)methyl)-1-(4-isobutyl-2-methoxyphenyl)-1H-imidazole-4-carboxamide] |  | 21 nM | 0.31 nM | 67% |  |  | 
9 | CCc1nc(C(=O)NC[C@H]2CC[C@H](S(C)(=O)=O)CC2)c(Cl)n1-c1ccc(CCCC(F)(F)F)cc1F [Example 97, 5-Chloro-2-ethyl-1-(2-fluoro-4-(4,4,4-trifluorobutyl)phenyl)-N-(((1r,4r)-4-(methylsulfonyl)cyclohexyl)methyl)-1H-imidazole-4-carboxamide] | 53% | 22 nM | 14 nM |  |  |  | 
10 | CCc1nc(C(=O)NC[C@H]2CC[C@H](S(C)(=O)=O)CC2)c(Cl)n1-c1ccc(CC(C(F)(F)F)C(F)(F)F)cc1F [Example 99, 5-Chloro-2-ethyl-1-(2-fluoro-4-(3,3,3-trifluoro-2-(trifluoromethyl)propyl)phenyl)-N-(((1r,4r)-4-(methylsulfonyl)cyclohexyl)methyl)-1H-imidazole-4-carboxamide] |  | 16 nM | 4 nM |  |  | 99% | 
11 | CCc1nc(C(=O)NC[C@H]2CC[C@H](S(C)(=O)=O)CC2)c(Cl)n1-c1ccc(CC(C)(C)C(F)(F)F)cc1F [Example 101, 5-Chloro-2-ethyl-1-(2-fluoro-4-(3,3,3-trifluoro-2,2-dimethylpropyl)phenyl)-N-(((1r,4r)-4-(methylsulfonyl)cyclohexyl)methyl)-1H-imidazole-4-carboxamide] |  | 18 nM | 4 nM |  |  | 65% | 
12 | CCc1nc(C(=O)NC[C@]2(O)CC[C@@H](S(C)(=O)=O)CC2)c(C)n1-c1ccc(CC(C(F)(F)F)C(F)(F)F)c(F)c1 [Example 106, 2-Ethyl-1-(3-fluoro-4-(3,3,3-trifluoro-2-(trifluoromethyl)propyl)phenyl)-N-(((1s,4s)-1-hydroxy-4-(methylsulfonyl)cyclohexyl)methyl)-5-methyl-1H-imidazole-4-carboxamide] |  | 170 nM | 55 nM |  |  | 40% | 
13 | CCc1nc(C(=O)NC[C@]2(O)CC[C@@H](S(C)(=O)=O)CC2)c(Cl)n1-c1c(F)cc(CC(O)(C(F)(F)F)C(F)(F)F)cc1F [Example 108, 5-Chloro-1-(2,6-difluoro-4-(3,3,3-trifluoro-2-hydroxy-2-(trifluoromethyl)propyl)phenyl)-2-ethyl-N-(((1s,4s)-1-hydroxy-4-(methylsulfonyl)cyclohexyl)methyl)-1H-imidazole-4-carboxamide] |  | 340 nM | 100 nM |  | 99% |  | 
14 | CCc1nc(C(=O)NC[C@H]2CC[C@H](S(C)(=O)=O)CC2)c(C)n1-c1ccc(CC(C(F)(F)F)C(F)(F)F)cc1F [Example 110, 2-Ethyl-1-(2-fluoro-4-(3,3,3-trifluoro-2-(trifluoromethyl)propyl)phenyl)-5-methyl-N-(((r,4r)-4-(methylsulfonyl)cyclohexyl)methyl)-1H-imidazole-4-carboxamide] |  | 1.8 nM | 3.3 nM |  |  |  | 90%
15 | CCc1nc(C(=O)NC[C@]2(O)CC[C@@H](S(C)(=O)=O)CC2)c(C(N)=O)n1-c1ccc(CC(C)(C)C(F)(F)F)cc1OC(F)(F)F [Example 112, 2-Ethyl-N^4-(((1s,4s)-1-hydroxy-4-(methylsulfonyl)cyclohexyl)methyl)-1-(4-(3,3,3-trifluoro-2,2-dimethylpropyl)-2-(trifluoromethoxy)phenyl)-1H-imidazole-4,5-dicarboxamide] |  | 17 nM | 1.9 nM | 89% |  |  | 
16 | CCc1nc(C(=O)NC[C@H]2CC[C@H](S(C)(=O)=O)CC2)c(C#N)n1-c1ccc(CC(C)(C)C(F)(F)F)cc1OC(F)(F)F [Example 113, 5-Cyano-2-ethyl-N-(((1r,4r)-4-(methylsulfonyl)cyclohexyl)methyl)-1-(4-(3,3,3-trifluoro-2,2-dimethylpropyl)-2-(trifluoromethoxy)phenyl)-1H-imidazole-4-carboxamide] |  | 44 nM | 8.3 nM | 88% |  |  | 
